Test [1] deals with HT-29. Nature of the test: Cytotoxicity against human HT-29 cells assessed as reduction in cell viability incubated for 48 hrs by MTT assay. Type of test: functional, cell-based. Conditions: HT-29, 48 h.
The test system of test [2] is HepG2. Kind of test: Cytotoxicity against human HepG2 cells assessed as reduction in cell viability incubated for 48 hrs by MTT assay. The test is classed as functional, cell-based. To be noted: HepG2, 48 h. In general terms: Tetrazolium assays rely on reduction of a dye to a coloured formazan, in cell work by metabolically active cells.
The subject of test [3] is MDA-MB-231. Nature of the test: Cytotoxicity against human MDA-MB-231 cells assessed as reduction in cell viability incubated for 48 hrs by MTT assay. The test is classed as functional, cell-based. Conditions: MDA-MB-231, 48 h.
Test [4] deals with HCT-116. Kind of test: Cytotoxicity against human HCT-116 cells assessed as reduction in cell viability incubated for 48 hrs by MTT assay. Conditions: HCT-116, 48 h. The test is classed as functional, cell-based.
The subject of test [5] is SW480. Nature of the test: Cytotoxicity against human SW480 cells assessed as reduction in cell viability incubated for 48 hrs by MTT assay. The test is classed as functional, cell-based. To be noted: SW480, 48 h.
Test [6] concerns A549. Kind of test: cells. To be noted: Homo sapiens, A549, 48 h.
The test system of test [7] is U2OS. Nature of the test: Cytotoxicity against human U2OS cells assessed as reduction in cell viability incubated for 48 hrs by MTT assay. Type of test: functional, cell-based.

In the case of `C/C1=C\CC[C@@]2(C)O[C@H]2[C@H]2OC(=O)/C(=C\c3ccc4ncncc4c3)[C@@H]2CC1`, the IC50 (in general, the concentration needed to halve the response being measured) was more than 100 µM in test [1]; more than 100 µM in test [2]; more than 100 µM in test [3]; 87.7 µM in test [4]; 51600 nM in test [5]; 40.2 µM in test [6]. Besides, in test [7], the IC50 was 72 µM.
In the case of `C=C1C(=O)O[C@H]2[C@H]1CC/C(COC(=O)c1ccc3ncncc3c1)=C/CC[C@@]1(C)O[C@@H]21`, the IC50 came to 5.82 µM in test [1]; 11.8 µM in test [2]; 9.01 µM in test [3]; 6.19 µM in test [4]; 1900 nM in test [5]; 17.4 µM in test [6]. Further, the IC50 in test [7] is 13.9 µM.
Regarding `C=C1C(=O)O[C@H]2[C@H]1CC[C@@]1(COC(=O)c3ccc4ncccc4c3)O[C@@H]1CC[C@@]1(C)O[C@@H]21`, the IC50 was determined as 0.94 µM in test [1]; 7.13 µM in test [2]; 6.61 µM in test [3]; 1.8 µM in test [4]; 2400 nM in test [5]; 6.69 µM in test [6]. Also, in test [7], the IC50 came to 6.43 µM.
Take `C=C1C(=O)O[C@H]2[C@H]1C[C@H](OC(=O)c1ccc3ncccc3c1)C(C)=C1CC[C@@](C)(O)[C@@H]12`: the IC50 was 1.46 µM in test [1]; 4.53 µM in test [2]; 2.66 µM in test [3]; 1.1 µM in test [4]; 400 nM in test [5]; 1.58 µM in test [6]. In addition, the IC50 in test [7] is 2.36 µM.
`C/C1=C\CC[C@@]2(C)O[C@H]2[C@H]2OC(=O)/C(=C\c3ccc4nccnc4c3)[C@@H]2CC1`: the IC50 in test [1] was found to be 358 µM; in test [2], 13.8 µM; in test [3], 7.59 µM; in test [4], 4.38 µM; in test [5], 3510 nM; in test [6], 9.18 µM. In test [7], the IC50 came to 3 µM.
As to `C=C1C(=O)O[C@H]2[C@H]1CC/C(COC(=O)c1ccc3nc(O)ccc3c1)=C/CC[C@@]1(C)O[C@@H]21`, the IC50 in test [1] is 1.72 µM; in test [2] it was 10.6 µM; in test [3] it was 5.1 µM; in test [4], 2.25 µM; in test [5] it was 730 nM; in test [6], 5.12 µM. Also, the IC50 in test [7] is 7.62 µM.
Consider `C=C1C(=O)O[C@H]2[C@H]1CC/C(CO)=C\CC[C@@]1(C)O[C@@H]21`, for which the IC50 in test [1] was 6.95 µM; in test [2], 12 µM; in test [3], 6.01 µM; in test [4], 7.5 µM; in test [5], 5870 nM; in test [6] it was 7.49 µM. Besides, in test [7], the IC50 is 10.7 µM.
Take `C=C1C(=O)O[C@H]2[C@H]1CC/C(COC(=O)CCn1cnc3ccccc3c1=O)=C/CC[C@@]1(C)O[C@@H]21`: the IC50 amounted to 5.21 µM in test [1]; 17.9 µM in test [2]; 8.37 µM in test [3]; 5.71 µM in test [4]; 3230 nM in test [5]; 8.63 µM in test [6]. Moreover, the IC50 in test [7] was 7.76 µM.
Consider `C/C1=C\CC[C@@]2(C)O[C@H]2[C@H]2OC(=O)C(CN3CCN(C(=O)c4ccc5ccccc5n4)CC3)[C@@H]2CC1` (stereo partly drawn), for which the IC50 is 54.4 µM in test [1]; 69.5 µM in test [2]; 87 µM in test [3]; 64.3 µM in test [4]; 23100 nM in test [5]; 60.1 µM in test [6]. For the same compound, the IC50 in test [7] was 23.5 µM.
For `C=C1C(=O)O[C@H]2[C@H]1CC/C(COC(=O)Cc1n[nH]c(=O)c3ccccc13)=C/CC[C@@]1(C)O[C@@H]21`, the IC50 in test [1] was determined as 2.56 µM; in test [2], 8.44 µM; in test [3], 5.49 µM; in test [4], 2.87 µM; in test [5], 2280 nM; in test [6], 5.79 µM. Further, the IC50 in test [7] turned out to be 8.53 µM.
On to `C/C1=C\CC[C@@]2(C)O[C@H]2[C@H]2OC(=O)C(CN3CCCN(C(=O)c4ccc5ccccc5n4)CC3)[C@@H]2CC1` (stereo partly drawn), for which the IC50 in test [1] was 39 µM; in test [2], 59.6 µM; in test [3], 71.7 µM; in test [4], 50 µM; in test [5], 6390 nM; in test [6], 27.3 µM. Moreover, the IC50 in test [7] was determined as 11.1 µM.
`C=C1C(=O)O[C@H]2[C@H]1CC/C(COC(=O)CCc1n[nH]c(=O)c3ccccc13)=C/CC[C@@]1(C)O[C@@H]21`: the IC50 in test [1] is 4.11 µM; in test [2] it was 7.22 µM; in test [3] it was 7.92 µM; in test [4], 4.51 µM; in test [5], 1450 nM; in test [6], 13.5 µM. The IC50 in test [7] is 6.03 µM.
Take `C=C1C(=O)O[C@H]2[C@H]1CC/C(C(=O)CN1CCN(C(=O)c3ccc4ccccc4n3)CC1)=C/CC[C@@]1(C)O[C@@H]21`: the IC50 amounted to 4.83 µM in test [1]; 7.75 µM in test [2]; 8.37 µM in test [3]; 5.27 µM in test [4]; 3300 nM in test [5]; 14.8 µM in test [6]. Besides, the IC50 in test [7] stood at 13 µM.
For `C=C1C(=O)O[C@H]2[C@H]1CC/C(COC(=O)c1cccc3cccnc13)=C/CC[C@@]1(C)O[C@@H]21`, the IC50 in test [1] stood at 2.65 µM; in test [2], 8.76 µM; in test [3], 2.2 µM; in test [4], 4.12 µM; in test [5] it was 490 nM; in test [6] it was 2.65 µM. Further, the IC50 in test [7] was found to be 3.54 µM.
`C=C1C(=O)O[C@H]2[C@H]1CC/C(C(=O)CN1CCN(C(=O)c3ccc4ccccc4n3)CC1C)=C/CC[C@@]1(C)O[C@@H]21` (stereo partly drawn): the IC50 in test [1] was 6.34 µM; in test [2], 14 µM; in test [3], 8.67 µM; in test [4], 6.89 µM; in test [5], 8640 nM; in test [6], 14.2 µM. Also, the IC50 in test [7] amounted to 21.7 µM.
Regarding `C=C1C(=O)O[C@H]2[C@H]1CC/C(COC(=O)c1n[nH]c(=O)c3ccccc13)=C/CC[C@@]1(C)O[C@@H]21`, the IC50 in test [1] was 6.26 µM; in test [2] it was 9.63 µM; in test [3], 6.26 µM; in test [4] it was 6.86 µM; in test [5] it was 2430 nM; in test [6], 4.52 µM. In test [7], the IC50 was 7.81 µM.
As for `C=C1C(=O)O[C@H]2[C@H]1CC/C(COC(=O)Cc1ccc3ncccc3c1)=C/CC[C@@]1(C)O[C@@H]21`, the IC50 in test [1] came to 1.4 µM; in test [2], 5.9 µM; in test [3], 4.13 µM; in test [4] it was 1.79 µM; in test [5], 1800 nM; in test [6] it was 2.76 µM. For the same compound, the 50% inhibitory concentration (IC50) in test [7] was found to be 6.62 µM.
On to `C=C1C(=O)O[C@H]2[C@H]1CC/C(COC(=O)c1cnc3ccccc3c1)=C/CC[C@@]1(C)O[C@@H]21`, for which the IC50 in test [1] was 2.43 µM; in test [2], 9.53 µM; in test [3], 2.27 µM; in test [4], 2.7 µM; in test [5] it was 330 nM; in test [6] it was 2.45 µM. Besides, the IC50 in test [7] is 2.58 µM.
Consider `C=C1C(=O)O[C@H]2[C@H]1CC/C(COC(=O)c1cnnc3ccccc13)=C/CC[C@@]1(C)O[C@@H]21`, for which the IC50 in test [1] was determined as 4.27 µM; in test [2], 12.5 µM; in test [3], 3.68 µM; in test [4], 3.78 µM; in test [5], 1330 nM; in test [6], 2.29 µM. Also, the IC50 in test [7] was determined as 4.01 µM.
For the compound `C=C1C(=O)O[C@H]2[C@H]1CC/C(C(=O)CN1CCCN(C(=O)c3ccc4ccccc4n3)CC1)=C/CC[C@@]1(C)O[C@@H]21`, the IC50 in test [1] amounted to 4.31 µM; in test [2], 5 µM; in test [3], 7.44 µM; in test [4], 4.32 µM; in test [5], 3130 nM; in test [6] it was 9.68 µM. Also, in test [7], the IC50 was found to be 10.6 µM.
On to `C=C1C(=O)O[C@H]2[C@H]1CC/C(COC(=O)c1ccc3ccccc3c1)=C/CC[C@@]1(C)O[C@@H]21`, for which the IC50 in test [1] amounted to 2.8 µM; in test [2] it was 8.15 µM; in test [3], 3.34 µM; in test [4], 3.05 µM; in test [5], 2250 nM; in test [6], 3.49 µM. Further, in test [7], the 50% inhibitory concentration (IC50) came out at 3.58 µM.
Regarding `C=C1C(=O)O[C@H]2[C@H]1CC/C(C(=O)Oc1ccc3nccc(Cl)c3c1)=C/CC[C@@]1(C)O[C@@H]21`, the IC50 in test [1] is 1.22 µM; in test [2], 4.03 µM; in test [3], 2.25 µM; in test [4] it was 1.29 µM; in test [5], 590 nM; in test [6], 2.74 µM. Also, in test [7], the IC50 was determined as 2.21 µM.
For `C=C1C(=O)O[C@H]2[C@H]1CC/C(COC(=O)c1ccc3nccnc3c1)=C/CC[C@@]1(C)O[C@@H]21`, the IC50 is 2.52 µM in test [1]; 6.84 µM in test [2]; 2.97 µM in test [3]; 2.82 µM in test [4]; 1250 nM in test [5]; 2.2 µM in test [6]. Moreover, in test [7], the IC50 was 3.18 µM.
On to `Cn1c2cc([S+](C)[O-])sc2c2cnn(Cc3cccc(N)c3)c(=O)c21` (stereo not drawn), for which the IC50 in test [1] was more than 100 µM; in test [2] it was more than 100 µM; in test [3], more than 100 µM; in test [4] it was 89.9 µM; in test [5] it was 93000 nM; in test [6], more than 100 µM. The IC50 in test [7] is more than 100 µM.

Values taken from ChEMBL document CHEMBL4831557, “Parthenolide Derivatives as PKM2 Activators Showing Potential in Colorectal Cancer” (J Med Chem, 2021).
